Measured values taken from ChEMBL document CHEMBL6120958, “A Highly Atom-Efficient Prodrug Approach to Generate Synergy between H2S and Nonsteroidal Anti-inflammatory Drugs and Improve Safety” (J Med Chem, 2024).
The source made the active and inactive calls. The calls are words filed in the database; no cut-off is given here.

Legend:
Mus musculus [1] = assay: (§1) Protection against ischemia/reperfusion injury in middle cerebral artery occlusion C57BL/6J mouse model assessed as decrease in malondialdehyde level in brain at 100 umol/kg, iv administered within initial 20 mins of ischemia period followed by reperfusion for 24 hrs after 1 hr and 20 mins of ischemia period and measured at 24 hrs post-reperfusion; format: functional, organism-based; settings: dose 100.0 µmol/kg, time 2960.0 min
Mus musculus [2] = assay: as §1, with “infarct size” for “malondialdehyde level”, “post-reperfusion by TTC staining based analysis” for “post-reperfusion”; format: functional, organism-based; settings: dose 100.0 µmol/kg, time 2960.0 min
[3] = Stability of the compound in PBS at 500 uM measured within 144 hrs at pH 7.4 at 37 degC by HPLC analysis; format: physicochemical; settings: buffer, pH 7.4, 144 h
[4] = Stability of the compound in PBS at 500 uM measured for 3 months at pH 7.4 at -20 degC by HPLC analysis; format: physicochemical; settings: buffer, pH 7.4, 2190 h
[5] = Toxicity against C57BL/6J mouse assessed as ALT level in serum at 506 umol/kg, ip measured after 24 hrs; format: organism-based; settings: in vivo, dose 506 µmol/kg
[6] = Cardiotoxicity against Sprague-Dawley rat assessed as LDH level in serum at 13.5 mg/kg, ip administered for 6 days (reference value: 831.8 +/-23.1 U/L); format: toxicity, organism-based; settings: in vivo, 144 h, time 6 day
[7] = Toxicity against collagen-induced arthritis Wistar rat model assessed as glutathione level in liver at 33.7 umol/kg, po administered for 28 days; format: organism-based; settings: in vivo, 672 h, dose 33.7 µmol/kg, time 28 day
Rattus norvegicus [8] = assay: Antiinflammatory activity against collagen-induced arthritis Wistar rat model assessed as reduction in IL-1 beta level in serum at 33.7 umol/kg, po administered for 28 days via gavage by ELISA; format: functional, organism-based; settings: dose 33.7 µmol/kg, time 28.0 day
[9] = Toxicity against collagen-induced arthritis Wistar rat model assessed as gastric ulcer area at 16.8 umol/kg, po administered for 28 days; format: organism-based; settings: in vivo, 672 h, at 16.8 µmol/kg, time 28 day
Rattus norvegicus [10] = assay: Antiinflammatory activity against collagen-induced arthritis Wistar rat model assessed as reduction in toe swelling at 33.7 umol/kg, po administered for 28 days via gavage; format: functional, organism-based; settings: dose 33.7 µmol/kg, time 28.0 day
Rattus norvegicus [11] = assay: Antiinflammatory activity against collagen-induced arthritis Wistar rat model assessed as increase in IL-10 level in serum at 33.7 umol/kg, po administered for 28 days via gavage by ELISA; format: functional, organism-based; settings: dose 33.7 µmol/kg, time 28.0 day
[12] = Toxicity against collagen-induced arthritis Wistar rat model assessed as creatinine level in serum at 33.7 umol/kg, po administered for 28 days; format: organism-based; settings: in vivo, 672 h, dose 33.7 µmol/kg, time 28 day
[13] = Toxicity against collagen-induced arthritis Wistar rat model assessed as gastrointestinal tract damage by measuring ulcer area in stomach at 33.7 umol/kg, po administered for 28 days; format: organism-based; settings: in vivo, 672 h, at 33.7 µmol/kg, time 28 day
[14] = Oral bioavailability in Wistar rat at 10 mg/kg; format: ADME, organism-based; settings: in vivo
[15] = Toxicity against C57BL/6J mouse assessed as AST level in serum at 506 umol/kg, ip measured after 24 hrs; format: organism-based; settings: in vivo, dose 506 µmol/kg
[16] = Toxicity against collagen-induced arthritis Wistar rat model assessed as AST level in serum at 33.7 umol/kg, po administered for 28 days; format: organism-based; settings: in vivo, 672 h, dose 33.7 µmol/kg, time 28 day
[17] = Toxicity against collagen-induced arthritis Wistar rat model assessed as uric acid level in serum at 33.7 umol/kg, po administered for 28 days; format: organism-based; settings: in vivo, 672 h, dose 33.7 µmol/kg, time 28 day
[18] = Stability of the compound in rat plasma assessed as half life by LC-MS/MS analysis; format: ADME, cell-free
[19] = target: T1, Prostaglandin G/H synthase 1 (Ovis aries, UniProt P05979); assay: Inhibition of ovine COX1 assessed as reduction in PGF2alpha production using arachidonic acid as substrate preincubated with enzyme for 10 mins followed by substrate addition and measured after 2 mins by ELISA
T1 sequence (P05979 whole entry): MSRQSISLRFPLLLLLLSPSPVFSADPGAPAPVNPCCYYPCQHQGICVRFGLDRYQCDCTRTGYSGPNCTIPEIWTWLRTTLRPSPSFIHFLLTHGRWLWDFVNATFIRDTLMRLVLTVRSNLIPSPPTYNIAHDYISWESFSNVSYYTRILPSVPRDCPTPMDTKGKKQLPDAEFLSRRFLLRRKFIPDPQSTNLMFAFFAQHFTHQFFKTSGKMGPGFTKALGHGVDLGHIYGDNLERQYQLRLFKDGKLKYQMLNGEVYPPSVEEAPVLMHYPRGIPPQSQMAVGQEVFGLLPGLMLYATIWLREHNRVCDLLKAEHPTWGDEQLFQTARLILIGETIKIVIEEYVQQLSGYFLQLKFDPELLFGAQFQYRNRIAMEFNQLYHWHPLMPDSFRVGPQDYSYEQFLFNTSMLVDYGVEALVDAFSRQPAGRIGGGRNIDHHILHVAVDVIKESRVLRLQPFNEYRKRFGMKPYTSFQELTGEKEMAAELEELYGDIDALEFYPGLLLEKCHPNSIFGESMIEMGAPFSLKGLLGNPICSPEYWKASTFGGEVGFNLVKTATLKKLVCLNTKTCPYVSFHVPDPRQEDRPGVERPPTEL

Liver carboxylesterase [20] = target: T2, Liver carboxylesterase (Sus scrofa, UniProt Q29550); assay: Prodrug release in PBS assessed as porcine liver esterase-mediated hydrolysis by measuring half-life at 500 uM measured at pH 7.4 by HPLC analysis; format: ADME; settings: pig, isolated protein, pH 7.4, 500 µM
T2 sequence (Q29550 whole entry): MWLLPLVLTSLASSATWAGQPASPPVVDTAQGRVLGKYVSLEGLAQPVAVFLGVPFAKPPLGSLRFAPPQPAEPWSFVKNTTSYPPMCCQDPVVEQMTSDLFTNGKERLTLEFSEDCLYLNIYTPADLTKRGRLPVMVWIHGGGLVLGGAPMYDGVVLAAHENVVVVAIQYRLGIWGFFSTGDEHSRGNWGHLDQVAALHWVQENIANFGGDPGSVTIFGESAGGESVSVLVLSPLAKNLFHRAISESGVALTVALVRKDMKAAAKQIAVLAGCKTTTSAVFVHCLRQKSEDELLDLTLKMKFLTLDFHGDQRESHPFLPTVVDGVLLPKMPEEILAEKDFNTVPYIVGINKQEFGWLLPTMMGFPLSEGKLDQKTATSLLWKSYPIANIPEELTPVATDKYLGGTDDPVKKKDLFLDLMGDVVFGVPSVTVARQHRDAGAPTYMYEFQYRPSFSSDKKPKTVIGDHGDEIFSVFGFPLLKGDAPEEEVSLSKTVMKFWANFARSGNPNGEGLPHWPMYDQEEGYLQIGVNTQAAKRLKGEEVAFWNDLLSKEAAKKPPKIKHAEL

Liver carboxylesterase [21] = target: T2, Liver carboxylesterase; assay: Prodrug release in PBS assessed as porcine liver esterase-mediated hydrolysis by measuring peak H2S concentration at 500 uM measured at pH 7.4 after 40 mins by methylene blue method; format: ADME; settings: pig, isolated protein, pH 7.4, 40 min

## OC(=S)c1ccccc1
Mus musculus [1]
  Activity: Active
Mus musculus [2]
  Activity: Active; Comparable Efficacy To Na2S Observed

## Cc1ccc(CC(=O)[S-])cc1.[Na+]
[3]
  Stability: Stable
[4]
  Stability: Stable

## O=C(O)Cc1ccccc1Nc1c(Cl)cccc1Cl [DICLOFENAC]
[5]
  Activity: 76.9 U/L
[6]
  Activity: 2249 U/L
[7]
  Activity: 0.8 µg/mg
Rattus norvegicus [8]
  Activity: Active
[9]
  Activity: 0.09%
Rattus norvegicus [10]
  Activity: Active
Rattus norvegicus [11]
  Activity: Active
[12]
  Activity: 342.6 µmol/L
[13]
  Activity: 0.42%
[14]
  bioavailability: 75%
[15]
  Activity: 128.6 U/L
[16]
  Activity: 75.3 U/L
[17]
  Activity: 165.6 µmol/L

## Cc1ccc(C(=O)[S-])cc1.[Na+]
[3]
  Stability: Stable
[4]
  Stability: Stable

## CC(C(=O)[S-])c1ccc(-c2ccccc2)c(F)c1.[Na+] (stereo unspecified)
[3]
  Stability: Stable
[18]
  half-life: 4.67 h
[19]
  IC50: 221 nM
[4]
  Stability: Stable

## O=C([S-])CCc1ccc(Cl)cc1.[Na+]
[3]
  Stability: Stable
Liver carboxylesterase [20]
  t1/2: 5.8 min
Liver carboxylesterase [21]
  Drug metabolism: 129 µM
[4]
  Stability: Stable

## O=C([S-])Cc1ccccc1.[Na+]
[3]
  Stability: Stable
[4]
  Stability: Stable

## COc1ccc(CCC(=O)[S-])cc1.[Na+]
[3]
  Stability: Stable
[4]
  Stability: Stable
